Data as given in patent US20100160397A1, “OXAZOLE DERIVATIVES AND THEIR USE IN THE TREATMENT OF DIABETES AND OBESITY” (priority 2006, published 2010).

Molecular target: T1, human DGAT1 (Homo sapiens, UniProt O75907)
T1 construct: made in house; host or cells: sf9 insect cells (baculovirus), membrane fraction
T1 sequence (O75907 1-488): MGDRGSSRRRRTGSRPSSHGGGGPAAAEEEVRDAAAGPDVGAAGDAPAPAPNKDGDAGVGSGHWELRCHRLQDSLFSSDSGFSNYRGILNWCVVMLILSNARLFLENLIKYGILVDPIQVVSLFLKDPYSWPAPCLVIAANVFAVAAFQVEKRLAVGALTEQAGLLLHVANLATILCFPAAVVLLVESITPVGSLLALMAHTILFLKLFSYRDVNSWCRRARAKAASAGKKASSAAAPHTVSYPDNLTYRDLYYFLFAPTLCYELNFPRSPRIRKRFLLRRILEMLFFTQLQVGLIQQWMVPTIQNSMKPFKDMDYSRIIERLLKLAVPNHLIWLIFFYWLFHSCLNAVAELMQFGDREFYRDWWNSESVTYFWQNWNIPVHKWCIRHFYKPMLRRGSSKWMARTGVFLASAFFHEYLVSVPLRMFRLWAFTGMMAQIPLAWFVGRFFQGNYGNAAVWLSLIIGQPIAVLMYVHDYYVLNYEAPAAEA
Test: Human Enzyme Assay (DGAT1 inhibition, 14C oleoyl CoA incorporation into triolein)
Type: biochemical
Settings: human DGAT1 expressed in insect cell (sf9) membranes; 30 μM 14C oleoyl coenzyme A, 30 minutes at room temperature
Procedure: As indicated above, all of the compounds, and their corresponding pharmaceutically-acceptable salts, are useful in inhibiting DGAT1.
The in vitro assay to identify DGAT1 inhibitors uses human DGAT1 expressed in insect cell membranes as the enzyme source (Proc. Natl. Acad. Sci. 1998, 95, 13018-13023). Briefly, sf9 cells were infected with recombinant baculovirus containing human DGAT1 coding sequences and harvested after 48 h. Cells were lysed by sonication and membranes isolated by centrifuging at 28000 rpm for 1 h at 4° C. on a 41% sucrose gradient. The membrane fraction at the interphase was collected, washed, and stored in liquid nitrogen.
DGAT1 activity was assayed by a modification of the method described by Coleman (Methods in Enzymology 1992, 209, 98-102). Compound at 1-10 μM was incubated with 0.4 μg membrane protein, 5 mM MgCl2, and 10 0 μM 1,2 dioleoyl-sn-glycerol in a total assay volume of 200 μl in plastic tubes. The reaction was started by adding ^14C oleoyl coenzyme A (30 μM final concentration) and incubated at room temperature for 30 minutes. The reaction was stopped by adding 1.5 mL 2-propanol:heptane:water (80:20:2). Radioactive triolein product was separated into the organic phase by adding 1 mL heptane and 0.5 mL 0.1 M carbonate buffer pH 9.5. DGAT1 activity was quantified by counting aliquots of the upper heptane layer by liquid scintillography.

- IC50: 32 µM
Structure (SMILES): COC(=O)C[C@H]1CC[C@H](c2ccc(NC(=O)c3coc(Nc4ccc(F)c(F)c4)n3)cc2)CC1 [Example 2, Methyl trans-2-{4-[4-({2-[(3,4-difluorophenyl)amino]-1,3-oxazole-4-carbonyl}amino)phenyl]cyclohexyl}acetate]
